According to article PMC8621172, “Manipulating Estrogenic/Anti-Estrogenic Activity of Triphenylethylenes towards Development of Novel Anti-Neoplastic SERMs” (International Journal of Molecular Sciences, 2021):
Where “and” joins values, the source holds several entries; their conditions need not be identical. Equal values may be shown once.

Key:
human ERα = target: T1, human ERα (Homo sapiens, UniProt P03372); assay: Yeast estrogen screen (YES) assay, agonistic activity (β-galactosidase reporter); format: cell-based; conditions: triplicates; for EC50: YES assay; for Estrogenic Activity (relative β-galactosidase activity): compounds at 1 µM, compared to DMSO (set as 1)
T1 construct: host or cells: Saccharomyces cerevisiae
T1 sequence (P03372 1-595): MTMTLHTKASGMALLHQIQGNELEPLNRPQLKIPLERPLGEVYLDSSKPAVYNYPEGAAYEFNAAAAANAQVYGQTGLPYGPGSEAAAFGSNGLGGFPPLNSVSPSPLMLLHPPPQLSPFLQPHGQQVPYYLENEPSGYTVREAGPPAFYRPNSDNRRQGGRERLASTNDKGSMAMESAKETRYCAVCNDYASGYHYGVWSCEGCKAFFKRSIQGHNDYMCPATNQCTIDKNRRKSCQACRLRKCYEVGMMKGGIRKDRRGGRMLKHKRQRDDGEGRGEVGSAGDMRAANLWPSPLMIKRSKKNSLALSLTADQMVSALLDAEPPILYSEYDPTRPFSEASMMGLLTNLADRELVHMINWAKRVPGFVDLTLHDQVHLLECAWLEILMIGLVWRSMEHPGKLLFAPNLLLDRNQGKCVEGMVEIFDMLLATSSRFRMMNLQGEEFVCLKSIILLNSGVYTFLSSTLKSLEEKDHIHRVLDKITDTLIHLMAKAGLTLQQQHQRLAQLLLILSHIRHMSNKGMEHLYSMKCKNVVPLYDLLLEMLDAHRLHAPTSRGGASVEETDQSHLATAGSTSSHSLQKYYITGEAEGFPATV
Procedure: All synthesized compounds were tested for their relative activity in β-galactosidase in a yeast estrogen screen (YES) assay. Compounds were tested for their relative estrogenic/anti-estrogenic activities in comparison to positive and negative controls, respectively. YES assay is a gene reporter assay where the DNA sequence of human ERα is integrated into the yeast genome completed with an expression plasmid carrying estrogen response elements (ERE) in the promoter controlling the expression of the reporter gene lacZ (encoding the enzyme β-galactosidase). In the presence of estrogenic compounds, β-galactosidase is synthesized and secreted into the medium, where it converts the chromogenic substrate chlorophenol red-β-D-galactopyranoside (CRPG) from a yellow to a red product, whose absorbance is measured. […] Therefore, we decided to test the novel compounds in an organ-specific in vitro model using the human Ishikawa endometrial adenocarcinoma cell line.
All synthesized compounds were tested for their relative β-galactosidase activity in a yeast estrogen screen (YES) assay at a concentration of 1 µM using DMSO as control (set as 1).
The yeast estrogen receptor assay was supplied by Dr. J.P. Sumpter (Brunel University, Uxbridge, UK) and was used to determine the relative transactivation activity of the human ERα as formerly described. Briefly, Saccharomyces cerevisiae stably transfected with a human ERα and an estrogen-responsive element fused to the reporter gene lacZ encoding for β-galactosidase were treated with the test substances for about 48 h. The β-galactosidase enzymatic activity was measured in a colorimetric assay using a microplate photometer by hydrolysis of the substrate chlorophenol red β-D-galactopyranoside (Roche Diagnostics, Mannheim, Germany), which leads to the formation of chlorophenol red. This can be measured as an increased absorption at 540 nm. All compounds were diluted in DMSO. […] All compounds were tested in technical quadruplicates and biological triplicates. Statistical analysis was performed by analysis of variance (ANOVA) and Tukey’s post-hoc test with the significance level of p < 0.05.

60 NCI tumor cell lines = assay: NCI-60 single-dose growth inhibition screen (SRB); format: cell-based, human; conditions: for anti-proliferative activity (in words): 10 µM, NCI-60 panel and MCF-7; for inhibition at 10 µM: Homo sapiens, mean over 60 NCI tumor cell lines
Procedure: The anti-proliferative effects of the novel analogs were tested in vitro by the National Cancer Institute (NCI) on a panel of 60 human tumor cell lines at 10 µM. Compounds that elicited mean growth inhibition ≥50% were selected by the NCI for 5-dose testing.
Compounds were submitted to the Developmental Therapeutics Program (DTP) of the National Cancer Institute (NCI). The program uses a panel of 60 human tumor cell lines representing nine tissue types, including leukemia, non-small cell lung cancer (NSCLC), melanoma, colon cancer, ovarian cancer, CNS cancer, renal cancer, prostate cancer, and breast cancer, to screen for potential new anti-cancer agents. […] Primary screening of synthesized compounds was performed by testing a single high dose of 10 µM in the full NCI-60 panel. The percent growth of treated cells relative to the no-drug control and relative to the time zero number of cells was measured, and a mean graph was provided. The percentage inhibition was then calculated by subtracting the values obtained from 100.
All compounds were subjected to the NCI in vitro disease-oriented human cells screening panel assay. The human tumor cell lines of the cancer-screening panel are grown in RPMI 1640 medium containing 5% fetal bovine serum and 2 mM L-glutamine. For a typical screening experiment, cells are inoculated into 96-well microtiter plates in 100 μL at plating densities ranging from 5000 to 40,000 cells/well depending on the doubling time of individual cell lines. After cell inoculation, the microtiter plates are incubated at 37 °C, 5% CO2, 95% air, and 100% relative humidity for 24 h prior to the addition of experimental drugs. After 24 h, two plates of each cell line are fixed in situ with TCA to represent a measurement of the cell population for each cell line at the time of drug addition. Experimental drugs are solubilized in dimethyl sulfoxide at 400-fold the desired final maximum test concentration and stored frozen prior to use. At the time of drug addition, an aliquot of frozen concentrate is thawed and diluted to twice the desired final maximum test concentration with complete medium containing 50 μg/mL gentamicin. Additional four, 10-fold, or ½ log serial dilutions are made to provide a total of five drug concentrations plus control. Aliquots of 100 μL of these different drug dilutions are added to the appropriate microtiter wells already containing 100 μL of medium, resulting in the required final drug concentrations. Following drug addition, the plates are incubated for an additional 48 h at 37 °C, 5% CO2, 95% air, and 100% relative humidity. For adherent cells, the assay is terminated by the addition of cold TCA. Cells are fixed in situ by the gentle addition of 50 μL of cold 50% (w/v) TCA (final concentration, 10% TCA) and incubated for 60 min at 4 °C. The supernatant is discarded, and the plates are washed five times with tap water and air-dried. Sulforhodamine B (SRB) solution (100 μL) at 0.4% (w/v) in 1% acetic acid is added to each well, and plates are incubated for 10 min at room temperature. After staining, unbound dye is removed by washing five times with 1% acetic acid, and the plates are air-dried. Bound stain is subsequently solubilized with a 10 mM trizma base, and the absorbance is read on an automated plate reader at a wavelength of 515 nm. For suspension cells, the methodology is the same except that the assay is terminated by fixing settled cells at the bottom of the wells by gently adding 50 μL of 80% TCA (final concentration, 16% TCA). Compounds are screened at a dose of 10 µM, hits showing mean growth inhibition over 60 cell lines >50% are escalated for 5-dose screening assay.

Structure (SMILES)	EC50 (human ERα)	Estrogenic Activity (relative β-galactosidase activity) (human ERα)	anti-proliferative activity (in words) (60 NCI tumor cell lines)	inhibition at 10 µM (60 NCI tumor cell lines)
COc1ccc(C(C)=C(c2ccc(O)cc2)c2ccc(Cl)cc2)cc1F [Compound 3, E/Z-4-[1-(4-Chlorophenyl)-2-(3-fluoro-4-methoxyphenyl)propenyl]-phenol]	40 nM and 40.1 nM	12.83 ± 2.72	lacked anti-proliferative activity	2.34%
COc1cc(C(C)=C(c2ccc(O)cc2)c2ccc(Cl)cc2)ccc1F [Compound 4, E/Z-4-[1-(4-Chlorophenyl)-2-(4-fluoro-3-methoxyphenyl)propenyl]-phenol]	258 ± 80 nM	6.62 ± 1.74	lacked anti-proliferative activity	15.4%
CC(=C(c1ccc(Cl)cc1)c1ccc(OCCCN(C)C)cc1)c1ccccc1 [Compound 5, E/Z-(3-{4-[1-(4-Chloro-phenyl)-2-phenyl-propenyl]-phenoxy}-propyl)-dimethyl-amine]		2.25 ± 0.92		15.4%
CC(=C(c1ccc(Cl)cc1)c1ccc(OCCN2CCCC2)cc1)c1ccccc1 [Compound 6, E/Z-1-(2-{4-[1-(4-Chloro-phenyl)-2-phenyl-propenyl]-phenoxy}-ethyl)-pyrrolidine]		2.88 ± 0.89		37.8%
CC(=C(c1ccc(Cl)cc1)c1ccc(OCCN2CCCCC2)cc1)c1ccccc1 [Compound 7, E/Z-1-(2-{4-[1-(4-Chloro-phenyl)-2-phenyl-propenyl]-phenoxy}-ethyl)-piperidine]		2.87 ± 0.90		29%
CC(=C(c1ccc(Cl)cc1)c1ccc(OCCN2CCOCC2)cc1)c1ccccc1 [Compound 8, E/Z-4-(2-{4-[1-(4-Chloro-phenyl)-2-phenyl-propenyl]-phenoxy}-ethyl)-morpholine]		1.85 ± 0.11	lacked anti-proliferative activity	9.4%
CC(=C(c1ccc(Cl)cc1)c1ccc(OCCN2CCCCCC2)cc1)c1ccccc1 [Compound 9, E/Z-1-(2-{4-[1-(4-Chloro-phenyl)-2-phenyl-propenyl]-phenoxy}-ethyl)-azepane]		6.74 and 6.74 ± 1.67		25.4%
COc1ccc(C(C)=C(c2ccc(Cl)cc2)c2ccc(OCCCN(C)C)cc2)cc1 [Compound 10, E/Z-(3-{4-[1-(4-Chloro-phenyl)-2-(4-methoxy-phenyl)-propenyl]-phenoxy}-propyl)-dimethyl-amine]		11.61 and 11.61 ± 0.99		33.4%
COc1ccc(C(C)=C(c2ccc(Cl)cc2)c2ccc(OCCN3CCCC3)cc2)cc1 [Compound 11, E/Z-1-(2-{4-[1-(4-Chloro-phenyl)-2-(4-methoxy-phenyl)-propenyl]-phenoxy}-ethyl)-pyrrolidine]		1.98 ± 0.12		67.8%
COc1ccc(C(C)=C(c2ccc(Cl)cc2)c2ccc(OCCN3CCCCC3)cc2)cc1 [Compound 12, E/Z-1-(2-{4-[1-(4-Chloro-phenyl)-2-(4-methoxy-phenyl)-propenyl]-phenoxy}-ethyl)-piperidine]		3.65 ± 0.70		55.2%
COc1ccc(C(C)=C(c2ccc(Cl)cc2)c2ccc(OCCN3CCOCC3)cc2)cc1 [Compound 13, E/Z-4-(2-{4-[1-(4-Chloro-phenyl)-2-(4-methoxy-phenyl)-propenyl]-phenoxy}-ethyl)-morpholine]		12.41 and 12.41 ± 0.26	lacked anti-proliferative activity	7.86%
COc1ccc(C(C)=C(c2ccc(Cl)cc2)c2ccc(OCCN3CCCCCC3)cc2)cc1 [Compound 14, E/Z-1-(2-{4-[1-(4-Chloro-phenyl)-2-(4-methoxy-phenyl)-propenyl]-phenoxy}-ethyl)-azepane]		1.80 ± 0.09		47.3%
COc1ccc(C(C)=C(c2ccc(Cl)cc2)c2ccc(OCCCN(C)C)cc2)cc1F [Compound 15, E/Z-(3-{4-[1-(4-Chlorophenyl)-2-(3-fluoro-4-methoxyphenyl)-propenyl]-phenoxy}-propyl)-dimethyl-amine]	440 ± 10 nM	7.77 and 7.77 ± 1.9		47.9%
COc1ccc(C(C)=C(c2ccc(Cl)cc2)c2ccc(OCCN3CCCC3)cc2)cc1F [Compound 16, E/Z-1-(2-{4-[1-(4-Chlorophenyl)-2-(3-fluoro-4-methoxyphenyl)-propenyl]-phenoxy}-ethyl)-pyrrolidine]		2.19 ± 0.71		77.2%
COc1ccc(C(C)=C(c2ccc(Cl)cc2)c2ccc(OCCN3CCCCC3)cc2)cc1F [Compound 17, E/Z-1-(2-{4-[1-(4-Chlorophenyl)-2-(3-fluoro-4-methoxyphenyl)-propenyl]-phenoxy}-ethyl)-piperidine]	252 ± 8 nM	7.28 and 7.28 ± 3.10		69.1%
COc1ccc(C(C)=C(c2ccc(Cl)cc2)c2ccc(OCCN3CCOCC3)cc2)cc1F [Compound 18, E/Z-4-(2-{4-[1-(4-Chlorophenyl)-2-(3-fluoro-4-methoxyphenyl)-propenyl]-phenoxy}-ethyl)-morpholine]		1.76 ± 0.56	lacked anti-proliferative activity	4.23%
